Measurements published in ChEMBL document CHEMBL1147136, “Constituents of Oxandra cf. xylopioides with anti-inflammatory activity” (J Nat Prod, 2007).
The source made the active and inactive calls. No cut-off for these calls is given here.

Legend:
Mus musculus [1] = experiment: Reduction of carrageenan-induced paw edema volume in mouse at 125 mg/kg, po after 3 hrs relative to control; type: functional; set-up: scale not given: the % may be the effect or the level left
Mus musculus [2] = experiment: Reduction of carrageenan-induced paw edema volume in mouse at 125 mg/kg, po after 5 hrs relative to control; type: functional; set-up: scale not given: the % may be the effect or the level left
Mus musculus [3] = experiment: Reduction of carrageenan-induced paw edema volume in mouse at 125 mg/kg, po after 1 hr relative to control; type: functional; set-up: scale not given: the % may be the effect or the level left
RAW264.7 [4] = experiment: Cytotoxicity against mouse RAW264.7 cells at 100 uM by MTT assay; type: cell-based; conditions: raw264.7, 100 µM
RAW264.7 [5] = experiment: Effect on IL1-beta production in mouse RAW264.7 cells at 100 uM; type: functional
RAW264.7 [6] = experiment: Reduction of IL1-beta mRNA synthesis in mouse RAW264.7 cells at 100 uM; type: functional, cell-based

For `CC(C)[C@@]1(C)CCC([C@H]2CC[C@@]3(C)[C@@H]4CC[C@H]5C(C)(C)[C@@H](O)CC[C@@]56C[C@@]46CC[C@]23C)CO1` (stereo partly drawn) [BERENJENOL], the Activity (Mus musculus [1]) was 64%, the Activity (Mus musculus [2]) was 51% and the Activity (Mus musculus [3]) was 44%. For the same compound, the Activity (RAW264.7 [4]) was “Not Active”.
For `COc1cc(C)c(OC)c(O)c1C(C)C` [ISOESPINTANOL], the Activity (RAW264.7 [5]) was 72%, the Activity (Mus musculus [1]) was 43% and the Activity (RAW264.7 [4]) was “Not Active”. The Activity (RAW264.7 [6]) was “Active”.
